According to US8957022B2, “Multimeric tie 2 agonists and uses thereof in stimulating angiogenesis” (Sunnybrook Health Sciences Centre, priority 2006, dated 2015):

Legend:
CD1 mice = assay type: in vivo; settings: 50 μg intravenously, peripheral blood 24 hours post injection
Experimental: In this example, the effect of systemically administered Vasculotide on circulating endothelial cells was examined. Three month old CD1 mice were injected intravenously with either PBS (vehicle) or 50 μg of clustered Vasculotide. Twenty four hours post injection, peripheral blood was collected on heparin via cardiac puncture and nonhematopoietic circulating endothelial cells (CECs) were sorted using a four channel FACS approach. CECs were defined as CD13^+/VEGFR-2^+/CD45^−, Viable (propidium iodide). Cell numbers reported are number of viable cells/μl of peripheral blood. Total white blood cell count was also determined using a hemocytometer.

[1] = system: focal adhesion kinase (FAK); assay: FAK activation in HUVEC (pY397 FAK immunoblot); assay type: cell-based, human; settings: time course
Experimental: HUVEC were stimulated with one of either Ang 1 (R&D Systems), Vasculotide, avidin or clustered Vasculotide (preclustered with a 4:1 molar ratio of peptide:avidin in PBS for 2 hours at 4° C.) at various doses. Stimulations with Vasculotide were performed in full serum containing growth media for 15 minutes unless otherwise indicated. Cell lysate preparations and immunoblot analysis were performed by standard methods. Antibodies used for immunoblotting (in this and/or subsequent Examples) were monoclonal anti Tie 2 (Pharminogen), polyclonal anti pY992 Tie 2, (Cell Signaling Technology), polyclonal anti MAPK (Cell Signaling Technology), monoclonal anti phospho MAPK (Cell Signaling Technology), polyclonal anti AKT (Cell Signaling Technology), polyclonal anti pS473 AKT (Cell Signaling Technology), monoclonal anti pS1177 eNOS (BD Biosciences), polyclonal anti pY397 FAK (Biosource), polyclonal anti FAK (Santa Cruz), polyclonal anti smooth muscle actin-Cy3 direct conjugate (Dako), polyclonal anti PECAM (Pharminogen) and polyclonal anti smooth muscle actin (Sigma).
To examine Tie 2 activation kinetics, HUVEC were stimulated with native Ang 1 or clustered Vasculotide for various times. Stimulation was performed in 10% FBS. […]

MAPK, AKT and eNOS = assay: Phosphorylation of downstream signalling proteins in HUVEC (immunoblot); assay type: cell-based, human
Experimental: Having established that Vasculotide was able to bind Tie 2 (see Example 2), the ability of Vasculotide, when clustered with avidin in a 4:1 ratio (Vasculotide:avidin), to activate the Tie 2 receptor was tested by examining several well established downstream signalling pathways in human umbilical vein endothelial cells (HUVEC) (Cambrex, N.J.). Such signalling pathways are described in, for example, Kim, I. et al. (2000) Circ. Res. 9:952-959; Fujikawa, K. et al. (1999) Exp. Cell. Res. 2:663-672; Babaei, S. et al. (2003) Am. J. Pathol. 6:1927-1936.
HUVEC were grown on 6-well or 10 cm plates (Nunc) coated with gelatin (Sigma). HUVEC were cultured in F12 growth medium containing 10% fetal bovine serum (FBS), 0.1 mg/ml heparin sulphate, 1× penicillin, 1× streptomycin, 1× glutamine, VEGF 10 ng/ml, EGF 10 ng/ml, bFGF 5 ng/ml. All HUVEC were used between passage 3-9.
HUVEC were stimulated with one of either Ang 1 (R&D Systems), Vasculotide, avidin or clustered Vasculotide (preclustered with a 4:1 molar ratio of peptide:avidin in PBS for 2 hours at 4° C.) at various doses. Stimulations with Vasculotide were performed in full serum containing growth media for 15 minutes unless otherwise indicated. Cell lysate preparations and immunoblot analysis were performed by standard methods. […]

Vasculotide: biotinylated T7 peptide-PEG: Cys-His-His-His-Arg-His-Ser-Phe (SEQ ID NO: 2) conjugated to EZ-link-PEO-maleimide-biotin
Number of circulating endothelial cells (CD1 mice): decrease in the number of circulating endothelial cells

clustered Vasculotide: Vasculotide clustered with avidin in a 4:1 ratio, an obligate tetrameric compound
Activation of FAK [1]: no significant effect
pMAPK and pAKT in the time course (MAPK, AKT and eNOS; 10% FBS): marked increases in pMAPK and pAKT
Phosphorylation of Tie 2-responsive proteins MAPK, AKT and eNOS (MAPK, AKT and eNOS; coincident with receptor activation): phosphorylation of several known Tie 2-responsive proteins including MAPK, AKT and eNOS, was observed
